In patent US6331548A, “1-cycloalkyl-1,8-naphthyridin-4-one derivative as type IV phosphodiesterase inhibitor” (Suntory Limited, priority 1998, dated 2001):
pIC50: −log10 of the molar value. Structures can show the parent of a compound that is named as a salt.

Biological target: type IV phosphodiesterase
Test: Type IV phosphodiesterase inhibiting activity
Assay type: biochemical, human
Conditions: U937 type IV phosphodiesterase fraction, 0.28 μM cAMP, pH 7.5, 30° C., 30 minutes; read-out: PDEIV-IC50
Experimental: The following assay was used to evaluate the ability of the compound of the present invention to suppress type IV phosphodiesterase, according to Biochemical. Pharmacol. 48 (6), 1219-1223 (1994).
1) Type IV phosphodiesterase activity fractions were prepared as follows. Namely, human histiocytic lymphoma cell line U937 was cultured in an RPMI1640 medium containing 10% fetal calf serum to obtain 10^9 cells of U937. The cells were recovered by centrifugation and suspended in 40 ml of buffer A (20 mM bis-tris, 5 mM 2-mercaptoethanol, 2 mM benzamidine, 2 mM EDTA, 0.1 mM 4-(2-aminoethyl)benzensulfonyl hydrochloride, 50 mM sodium acetate, pH=6.5). The cells were broken by a sonication and centrifuged (4° C., 10,000 G, 10 minutes) to obtain a supernatant. This was filtered by a 0.45 μm filter to obtain the soluble fraction.
2) The soluble fraction obtained was applied into a 1×10 cm DEAE Sepharose column equalibrated with the buffer A. 120 ml of the buffer A containing a linear gradient solution of 0.05 to 1M sodium acetate was used to separate the phosphodiesterase and recover 24 5-ml fractions. Each of the fractions was measured for the cAMP phosphodiesterase activity.
3) The test compound was reacted at a desired concentration in a reaction mixture containing 20 mM tris-HCl (pH 7.5), 1 mM MgCl2, 100 μM EDTA, 330 μg/ml calf serum albumin, 10 μg/ml 5'-nucleotidase, 0.4 μCi ^3 H-cAMP (0.28 μM cAMP) and the type IV phosphodiesterase stored solution at 30° C. for 30 minutes. QAE-Sephadex suspended in 10 mM of hepes-Na (pH -7.0) was added to the reaction mixture which was then allowed to stand for 5 minutes, then the supernatant was obtained, QAE-Sephadex was further added, to the supernatant, and was allowed to stand for 5 minutes, then the supernatant was obtained and measured for radioactivity.

COC(=O)N1CCC(n2cc(C(=O)Nc3c(Cl)cccc3Cl)c(=O)c3cccnc32)C1 (racemic) [Example 4, (±)-N-(2,6-dichlorophenyl)-1-(1-methoxycarbonylpyrrolidin-3-yl)-1,4-dihydro[1,8]naphthyridin-4-one-3-carboxamide]
pIC50: 7.22

O=C(Nc1ccncc1)c1cn([C@@H]2CCOC2)c2ncccc2c1=O [Example 38, N-(4-pyridyl)-1-[(R)-tetrahydro-3-furanyl]-1,4-dihydro[1,8]naphthylidin-4-one-3-carboxamide]
pIC50: 6.48

O=C1CCC(n2cc(C(=O)Nc3ccncc3)c(=O)c3cccnc32)CC1 [Example 61, N-(4-pyridyl)-1-(4-oxocyclohexyl)-1,4-dihydro[1,8]naphthylidin-4-one-3-carboxamide]
pIC50: 6.74

CCOC(=O)N1CCC(n2cc(C(=O)Nc3c(Cl)cncc3Cl)c(=O)c3cccnc32)CC1 [Example 62, N-(3,5-dichloropyridin-4-yl)-1-(1-ethoxycarbonylpiperidin-4-yl)-1,4-dihydro[1,8]naphthylidin-4-one-3-carboxamide]
pIC50: 8.64

N[C@H]1CC[C@H](n2cc(C(=O)Nc3c(Cl)cncc3Cl)c(=O)c3cccnc32)CC1 [Example 69, N-(3,5-dichloropyridin-4-yl)-1-(trans-4-aminocyclohexyl)-1,4-dihydro[1,8]naphthylidin-4-one-3-carboxamide acetate]
pIC50: 6.68

CC(=O)N[C@H]1CC[C@H](n2cc(C(=O)Nc3c(Cl)cncc3Cl)c(=O)c3cccnc32)CC1 [Example 70, N-(3,5-dichloropyridin-4-yl)-1-[trans-4-(acetylamino)cyclohexyl]-1,4-dihydro[1,8]naphthylidin-4-one-3-carboxamide]
pIC50: 8.41

CCNC(=O)N[C@H]1CC[C@H](n2cc(C(=O)Nc3c(Cl)cncc3Cl)c(=O)c3cccnc32)CC1 [Example 71, N-(3,5-dichloropyridin-4-yl)-1-[trans-4-(ethylaminocarbonylamino)cyclohexyl]-1,4-dihydro[1,8]naphthylidin-4-one-3-carboxamide]
pIC50: 9.30

CS(=O)(=O)N[C@H]1CC[C@H](n2cc(C(=O)Nc3c(Cl)cncc3Cl)c(=O)c3cccnc32)CC1 [Example 72, N-(3,5-dichloropyridin-4-yl)-1-[trans-4-(methanesulfonylamino)cyclohexyl]-1,4-dihydro[1,8]naphthylidin-4-one-3-carboxamide]
pIC50: 6.96

O=C(Nc1c(Cl)cncc1Cl)c1cn([C@@H]2CC[C@@H](O)C2)c2ncccc2c1=O [Example 79, N-(3,5-dichloropyridin-4-yl)-1-[(1R,3R)-3-(hydroxy)cyclopentyl]-1,4-dihydro[1,8]naphthylidin-4-one-3-carboxamide]
pIC50: 8.92

O=C(Nc1ccncc1)c1cn([C@H]2CC[C@@H](O)CC2)c2ncccc2c1=O [Example 115, N-(4-pyridyl)-1-(cis-4-hydroxycyclohexyl)-1,4-dihydro[1,8]naphthylidin-4-one-3-carboxamide]
pIC50: 6.68

CC(=O)O[C@H]1CC[C@@H](n2cc(C(=O)Nc3c(Cl)cncc3Cl)c(=O)c3cccnc32)CC1 [Example 118]
pIC50: 8.89

CC(C)(C)C(=O)O[C@H]1CC[C@H](n2cc(C(=O)Nc3c(Cl)cncc3Cl)c(=O)c3cccnc32)CC1 [Example 128, trans-4-[3-{[(3,5-dichloro-4-pyridinyl)amino]carbonyl}-4-oxo[1,8]naphthylidin-1(4H)-yl]cyclohexylpivalate]
pIC50: 8.24

CCC(=O)O[C@H]1CC[C@H](n2cc(C(=O)Nc3c(Cl)cncc3Cl)c(=O)c3cccnc32)CC1 [Example 129, trans-4-[3-{[(3,5-dichloro-4-pyridinyl)amino]carbonyl}-4-oxo[1,8]naphthylidin-1(4H)-yl]cyclohexylpropionate]
pIC50: 8.03

O=C(O[C@H]1CC[C@H](n2cc(C(=O)Nc3c(Cl)cncc3Cl)c(=O)c3cccnc32)CC1)c1ccccc1 [Example 130, trans-4-[3-{[(3,5-dichloro-4-pyridinyl)amino]carbonyl}-4-oxo[1,8]naphthylidin-1(4H)-yl]cyclohexylbenzoate]
pIC50: 7.30

CN1CCN(Cc2ccc(C(=O)O[C@H]3CC[C@H](n4cc(C(=O)Nc5c(Cl)cncc5Cl)c(=O)c5cccnc54)CC3)cc2)CC1 [Example 133, trans-4-[3-{[(3,5-dichloro-4-pyridinyl)amino]carbonyl}-4-oxo[1,8]naphthylidin-1(4H)-yl]cyclohexyl 4-[(4-methylpiperazino)methyl]benzoate dihydrochloride]
pIC50: 8.14

O=C(O[C@H]1CC[C@H](n2cc(C(=O)Nc3c(Cl)cncc3Cl)c(=O)c3cccnc32)CC1)c1ccc(CN2CCOCC2)cc1 [Example 135, trans-4-[3-{[(3,5-dichloro-4-pyridinyl)amino]carbonyl}-4-oxo[1,8]naphthylidin-1(4H)-yl]cyclohexyl 4-(morpholinomethyl)benzoate hydrochloride]
pIC50: 8.35

O=C(Nc1ccncc1)c1cn(C2CCC2)c2ncccc2c1=O [Example 144, N-(4-pyridyl)-1-cyclobutyl-1,4-dihydro[1,8]naphthylidin-4-one-3-carboxamide]
pIC50: 6.92

O=C(Nc1c(Cl)cncc1Cl)c1cn(C2CCC2)c2ncccc2c1=O [Example 145, N-(3,5-dichloropyridin-4-yl)-1-cyclobutyl-1,4-dihydro[1,8]naphthylidin-4-one-3-carboxamide]
pIC50: 8.08

O=C(Nc1c(Cl)cncc1Cl)c1cn(C2CCCC2)c2ncccc2c1=O [Example 150, N-(3,5-dichloropyridin-4-yl)-1-cyclopentyl-1,4-dihydro[1,8]naphthylidin-4-one-3-carboxamide]
pIC50: 9.52

O=C(Nc1cccnc1)c1cn(C2CC2)c2ncccc2c1=O [Example 156, N-(3-pyridyl)-1-cyclopropyl-1,4-dihydro[1,8]naphthylidin-4-one-3-carboxamide]
pIC50: 6.82

Cc1cnccc1NC(=O)c1cn(C2CC2)c2ncccc2c1=O [Example 157, N-(3-methylpyridin-4-yl)-1-cyclopropyl-1,4-dihydro[1,8]naphthylidin-4-one-3-carboxamide]
pIC50: 6.89

CCN(CC)Cc1ccc(C(=O)O[C@H]2CC[C@H](n3cc(C(=O)Nc4c(Cl)cncc4Cl)c(=O)c4cccnc43)CC2)cc1 [Example 159, trans-4-[3-{[(3,5-dichloro-4-pyridinyl)amino]carbonyl}-4-oxo[1,8]naphthylidin-1(4H)-yl]cyclohexyl 4-(diethylaminomethyl)benzoate hydrochloride]
pIC50: 8.40

O=C(O[C@H]1CC[C@H](n2cc(C(=O)Nc3c(Cl)cncc3Cl)c(=O)c3cccnc32)CC1)c1cccc(CN2CCOCC2)c1 [Example 162, trans-4-[3-{[(3,5-dichloro-4-pyridinyl)amino]carbonyl}-4-oxo[1,8]naphthylidin-1(4H)-yl]cyclohexyl 3-(morpholinomethyl)benzoate hydrochloride]
pIC50: 8.22

O=C(NC1CCC1)c1cn([C@H]2CC[C@H](O)CC2)c2ncccc2c1=O [Example 164]
pIC50: 6.40

O=C(NC1CCCC1)c1cn([C@H]2CC[C@H](O)CC2)c2ncccc2c1=O [Example 168, N-cyclopentyl-1-(trans-4-hydroxycyclohexyl)-1,4-dihydro[1,8]naphthylidin-4-one-3-carboxamide]
pIC50: 5.82

O=C(NC1CC1)c1cn([C@H]2CC[C@H](O)CC2)c2ncccc2c1=O [Example 170, N-cyclopropyl-1-(trans-4-hydroxycyclohexyl)-1,4-dihydro[1,8]naphthylidin-4-one-3-carboxamide]
pIC50: 6.00

O=C(Nc1cccnc1)c1cn([C@H]2CC[C@H](O)CC2)c2ncccc2c1=O [Example 172, N-(3-pyridyl)-1-(trans-4-hydroxycyclohexyl)-1,4-dihydro[1,8]naphthylidin-4-one-3-carboxamide]
pIC50: 6.44

Cc1cnccc1NC(=O)c1cn([C@H]2CC[C@H](O)CC2)c2ncccc2c1=O [Example 174, N-(3-methylpyridin-4-yl)-1-(trans-4-hydroxycyclohexyl)-1,4-dihydro[1,8]naphthylidin-4-one-3-carboxamide]
pIC50: 6.89

Cc1cc(NC(=O)c2cn([C@H]3CC[C@H](O)CC3)c3ncccc3c2=O)sn1 [Example 176, N-(3-methylisothiazol-5-yl)-1-(trans-4-hydroxycyclohexyl)-1,4-dihydro[1,8]naphthylidin-4-one-3-carboxamide]
pIC50: 6.04

Cc1cc(NC(=O)c2cn([C@H]3CC[C@H](O)CC3)c3ncccc3c2=O)on1 [Example 178, N-(3-methylisoxazol-5-yl)-1-(trans-4-hydroxycyclohexyl)-1,4-dihydro[1,8]naphthylidin-4-one-3-carboxamide]
pIC50: 5.48

Cc1noc(NC(=O)c2cn([C@H]3CC[C@H](O)CC3)c3ncccc3c2=O)c1C [Example 180, N-(3,4-dimethylisoxazol-5-yl)-1-(trans-4-hydroxycyclohexyl)-1,4-dihydro[1,8]naphthylidin-4-one-3-carboxamide]
pIC50: 5.35
